# In patent US11286271B2, “Iridium (III) complexes containing N-heterocyclic carbene ligand, synthesis, and their use thereof in cancer treatment” (The University of Hong Kong, priority 2018, dated 2022):
# Assays:
# [1] = Lipophilicity, n-octanol / saline partition; type: physicochemical; settings: n-octanol / saline solution (0.9% w/v), by amount of iridium
# [2] = tested on: MCF-7; assay: In vitro cytotoxicity, MTT assay, MCF-7; type: cell-based, human; settings: 72 h incubation
# [3] = tested on: panel of human cancer cell lines; assay: Cytotoxicity towards a panel of human cancer cell lines; settings: summary of Table 2
# [4] = tested on: NCI-H460 lung cancer cells; assay: Cytotoxicity and photocytotoxicity, MTT assay, NCI-H460 in dark or under visible light; type: cell-based, human; settings: for PI = IC50(dark)/IC50(light): NCI-H460, phototoxicity index
# Experimental: FIG. 12A-12G. Plots of cell viability of NCI-H460 lung cancer cells upon 72 h treatment with the iridium(III) porphyrin complexes and cis-platin in dark or under light irradiation (2.8 mW cm^−2 for 1 h).
# NCI-H460 lung cancer cells incubated with the complexes were exposed to a low dose of visible light irradiation (2.8 mW cm^−2) for 1 h. […] The cytotoxicity of [Ir^III(oep)Cl(CO)] was also evaluated for comparison.
# [5] = tested on: HepG2; assay: In vitro cytotoxicity, MTT assay, HepG2; type: cell-based, human; settings: 72 h incubation
# [6] = Singlet oxygen generation quantum yield from 1O2 emission; type: physicochemical; settings: oxygen-saturated CHCl3, referenced to H2tpp
# [7] = in CHCl3, reference standard; cited from earlier work
# [8] = tested on: peptide ([…]) from thioredoxin (Trx); assay: Photoinduced oxidation of Trx model peptide by ESI-MS/MS; type: biochemical; settings: peptide 20 μM, complex 10 μM, light irradiation 1 h
# From the text: A peptide ([sequence]) from thioredoxin (Trx) was employed as a model to investigate the possible oxidative modification sites by electrospray ionization tandem mass spectrometry (ESI-MS/MS).
# [9] = tested on: MS-1 endothelial cells; assay: Inhibition of endothelial cell tube formation (angiogenesis); type: cell-based; settings: 0.1 μM
# From the text: (§1) FIGS. 8A-8C. […] (A) Apoptosis/necrosis in NCI-H460 cells as examined by flow cytometry of annexin-V-FITC/propidium iodide-stained cells. (B) Cell cycle progression in NCI-H460 cells as examined by flow cytometry. (C) Inhibition of angiogenesis of MS-1 endothelial cells.
# (§2) The other two groups of mice received the same treatment without irradiation as a control.
# [10] = tested on: NCI-H460 human non-small cell lung cancer xenografts; assay: In vivo antitumor activity, intravenous injection, NCI-H460 xenograft; settings: 3 mg/kg intravenous thrice weekly, 16-day treatment
# Experimental: (A) Tumor volume and (B) body weight of mice. Data are expressed as the mean±standard error; *p<0.05.
# Nude mice bearing NCI-H460 human non-small cell lung cancer xenografts were administered 102 (3 mg/kg) via intravenous injection thrice weekly.
# [11] = tested on: NCI-H460 cells; assay: Cell cycle progression by flow cytometry; type: cell-based, human; settings: 0.1 μM
# From the text: as §1, §2
# [12] = tested on: NCI-H460 cells; assay: Subcellular localization by confocal microscopy imaging; settings: 1 μM, 2 h, NCI-H460, ER-Tracker green
# [13] = tested on: NCI-H460 lung cancer xenografts; settings: 3.0 mg/kg intratumoral
# From the text: FIGS. 9A-9D. […] (A) Tumor volume. (B) Body weight of mice. (C) Tumor weight after the experiment. […] (D) Photo of tumors of each group after treatment for 15 days. Data are expressed as the mean±standard error; **p<0.01.
# as §2
# [14] = tested on: NCI-H460 cells; assay: Apoptosis by annexin-V-FITC/propidium iodide flow cytometry; type: cell-based, human; settings: 0.1 μM
# From the text: as §1, §2
# [15] = tested on: NCI-H460 lung cancer cells; assay: Cellular ROS generation by DCF fluorescence (H2DCF-DA probe); type: cell-based, human; settings: 1 μM, 2 h, visible light irradiation
# Experimental: (A) Generation of ROS examined by DCF fluorescence measurement in NCI-H460 cells treated with or without iridium(III) porphyrin complexes (1 μM) for 2 h with or without irradiation by visible light.
# To examine the relationship between photocytotoxicity and the photosensitizing properties of the complexes, we measured the cellular reactive oxygen species (ROS) generation using the ROS probe H2DCF-DA after treatment of cancer cells with the iridium(III) porphyrin complexes.
compound,measurement,setting,value
CCC1=C(CC)C2=NC1=Cc1c(CC)c(CC)c3[n]1[Ir+][n]1c(c(CC)c(CC)c1=CC1=NC(=C3)C(CC)=C1CC)=C2.F[B-](F)(F)F.[C-]#[N+]c1ccc(OC)cc1.[C-]#[N+]c1ccc(OC)cc1 [[Ir^III(ope)(CNPhOMe)2](BF4)],Log P,[1],2.81
same,IC50,[2],> 100 µM
same,"Cytotoxicity / IC50 in words, panel of human cancer cell lines",[3],reduced cytotoxicity
same,PI = IC50(dark)/IC50(light),[4],24.2
same,IC50,[5],> 100 µM
[Ir^III(oep)(I^iPr)2](PF6) [Complex 103],"IC50 upon light irradiation, in words","[4]; NCI-H460, visible light 2.8 mW cm^−2, 1 h",nanomolar
[Ir^III(ttp)(IMe)2](ORf) [Complex 101],Quantum yield of singlet oxygen generation (Φso),[6],0.64
[Ir^III(oep)Cl(CO)],Log P,[1],2.38
same,PI = IC50(dark)/IC50(light),[4],>2.5
same,IC50,"[4]; dark, MTT assay, 72 h",> 50 µM
"C1=Cc2nc1c(-c1ccccc1)c1ccc([nH]1)c(-c1ccccc1)c1nc(c(-c3ccccc3)c3ccc([nH]3)c2-c2ccccc2)C=C1 [Complex H2tpp, H2tpp]","Quantum yield of singlet oxygen generation (Φso), reference",[7],0.55
[Ir^III(oep)(IMe)2](OTf) [Complex 102],Oxidative modification of Trx peptide,[8],undergo oxidative modifications
same,"MS-1 cell tube formation, dark",[9]; dark,moderate inhibition
same,"MS-1 cell tube formation, light irradiation",[9]; light irradiation,completely abrogated
same,Quantum yield of singlet oxygen generation (Φso),[6],0.88
same,Toxicity incl. body weight loss and death,[10],without apparent toxicity
same,Tumor size reduction,[10],41%
same,G0/G1-population,[11]; dark (increase from 59.6%),66.3%
same,"sub-G1 population, visible light irradiation",[11]; visible light irradiation,96.9%
same,"sub-G1 population, before irradiation",[11]; without light,2.2%
same,Pearson's correlation coefficient (R) with ER-Tracker,[12],0.903
same,"Tumor weight, photoirradiation group vs dark control group",[13]; after 15 days,much lower
same,Changes in body weight,"[13]; with or without irradiation, 15 days",negligible changes in body weight
same,"Proportion of cells undergoing apoptotic cell death, without irradiation",[14]; dark,5.9%
same,"Proportion of cells undergoing apoptotic cell death, light irradiation",[14]; visible light irradiation,81.7%
same,Elevation in ROS levels,[15],10 fold
N.N.[Cl][Pt][Cl] [Cisplatin],PI = IC50(dark)/IC50(light),[4],0.72
same,PI = IC50(dark)/IC50(light),[4]; listed as cisplatin,< 1
